Assay results as given in patent publication US6506937B2, “Substituted benzenesulfonylureas and -thioureas-processes for their preparation and their use as pharmaceuticals” (priority 1993, dated 2003).

Experiments:
[1] = test system: papillary muscle of the guineapig; test: Action potential duration on the papillary muscle of the guineapig; format: cell-based; details: test substance 2.2×10^−5 mol per liter, 30 minutes after the addition, repolarization degree of 95%; for APD95-HOE 234: action potential shortened by 1 μM potassium channel opener Hoe 234 (rilmakalim); for APD95-DEO: action potential shortened by 2-deoxyglucose (DEO)
Source text: (1) Action potential duration on the papillary muscle of the guineapig:
ATP deficiency states such as are observed during ischemia in the cardiac muscle cell lead to a shortening of the duration of action potential. They are one of the causes of so-called reentry arrhythmias, which can cause sudden cardiac death. Opening of ATP-sensitive K channels by the reduction in ATP is a cause of this.
A standard microelectrode technique is used for measurement of the action potential. For this, guineapigs of both sexes are sacrificed by a blow to the head, the hearts are removed and the papillary muscles are separated out and suspended in an organ bath. The organ bath is flushed with Ringer solution (0.9% NaCl, 0.048% KCl, 0.024% CaCl2, 0.02% NaHCO3 and 0.1% glucose) and gassed with a mixture of 95% oxygen and 5% carbon dioxide at a temperature of 36° C. The muscle is stimulated via an electrode with rectangular pulses of 1 V and 1 ms duration and a frequency of 2 Hz. The action potential is conducted and recorded through a glass microelectrode, which is punctured intracellularly and filled with 3 mol KCl solution. The substances to be tested were added to the Ringer solution in a concentration of 2.2×10^−5 mol per liter. The action potential is shown in amplified form on an oscilloscope using a Hugo Sachs amplifier. The duration of the action potential is determined at a repolarization degree of 95% (APD95). Shortenings in action potential are caused either by addition of a 1 μM strength solution of the potassium channel opener Hoe 234 (rilmakalim) [W. Linz, E. Klaus, U. Albus, R. H. A. Becker, D. Mania, H. C. Englert, B. A. Schölkens Arzneimittelforechung/Drug Research, Volume 42 (II), 1992, pages 1180-1185] or by addition of 2-deoxyglucose (DEO). ATP deficiency states are caused in experimental physiology by 2-deoxyglucose by blockade of glucose meta-bolism. The action potential-shortening effect of these substances was prevented or reduced by the simultaneous dose of the test substances. The test substances were added to the bath solution as stock solutions in propanediol. The values stated relate to measurements 30 minutes after the addition. The APD95 in the presence of DEO or HOE 234 and in the absence of the test substance serves an a control.

RINm5F cells = test: Membrane potential on isolated β cells (RINm5F cells, whole cell patch clamp); format: cell-based; details: compound 10^−5 mol per liter, diazoxide (100 μmol) in bath, 34±1° C.
Source text: (2) Membrane potential on isolated β cells:
The action mechanism of hypoglycemic sulfonylureas is clarified in rough outlines. The β cells of the pancreas are the target organ, where increased secretion of the hypoglycemic hormone insulin occurs. The release of insulin is controlled by the cell membrane potential. Glibenclamide causes depolarization of the cell membrane, which promotes insulin release via an increased in-flow of calcium ions. The extent of this depolarization of the call membrane ΔU was determined on RINm5F cells, a pancreas tumor cell line, for some of the compounds according to the invention. The action strength of a compound in this model predicts the extent of the hypoglycemic potential of this compound.
RINm5F cells were cultured at 37° C. in RPMI 1640 culture medium (flow), to which […] of glucose, 10% (volume/volume) of fetal calf serum, 2 mmol of glutamine and 50 μg/ml of gentamycin were added. For the studies, the cells were isolated by incubation (about 3 minutes) in a Ca^2+-free medium containing 0.25% of trypsin and stored on ice.
Isolated RINm5F cells were introduced into a Plexi-glas chamber on an inverse microscope fitted with a differential interference contrast lens. A fire-polished micropipette with an opening diameter of about 1 μm was placed on the cell with the aid of a micromanipulator under optical control (400-fold magnification). By applying a slight reduced pressure in the patch pipette, a high electrical seal was first produced between the glass and cell membrane, and was then broken open by increasing the reduced pressure of the membrane spot under the measurement pipette. The cell potential was recorded in this whole cell configuration with the aid of a patch clamp amplifier (L/M EPC 7) and was measured by applying a potential ramp to the whole cell current.
Solutions: The patch pipette was filled with KCl solution (in mmol): 140 KCl, 10 NaCl, 1.1 MgCl2, 0.5 EGTA, 1 Mg-ATP, 10 HEPES, pH=7.2, and the bath contained NaCl solution (in mmol): 140 NaCl, 4.7 KCl, 1.1 MgCl2, 2 CaCl2, 10 HEPES, pH=7.4. […]

melting point [°C]	Structure (SMILES)	APD95-HOE 234 [1]	APD95-DEO [1]	ΔU (depolarization of the cell membrane) (RINm5F cells)
–	CNC(=S)NS(=O)(=O)c1cc(CCNC(=O)c2cc(Cl)ccc2OC)ccc1OC [Example 10, 2-Methoxy-5-chloro-N-{5-[1-sulfonylamino-N-(methylaminothiocarbonyl)-2-methoxyphenyl]-ethyl}-benzamide]	137 ± 20 (150 ± 23) ms	125 (175) ms	11 (−79) n = 3 mv
207	CCc1ccc(CCNC(=O)c2cc(Cl)ccc2OC)cc1S(=O)(=O)NC(=O)NC	–	–	–
199 to 200	CNC(=O)NS(=O)(=O)c1cc(CCNC(=O)c2cc(F)ccc2OC)ccc1OC	–	–	–
190 to 195	CCOc1ccc(CCNC(=O)c2cc(Cl)ccc2OC)cc1S(=O)(=O)NC(=O)NC	–	–	–
285	CNC(=O)NS(=O)(=O)c1cc(CCCNC(=O)c2cc(Cl)ccc2OC)ccc1OC	–	–	–
–	CNC(=O)NS(=O)(=O)c1cc(CCNC(=O)c2cc(Cl)ccc2OC)ccc1C [Example 4, 2-Methoxy-5-chloro-N-{5-[1-sulfonylamino-N-(methylaminocarbonyl)-2-methylphenyl]-ethyl}-benzamide]	123 ± 15 (172 ± 18) ms	110 ± 23 (180 ± 5) ms	19 (−76) n = 3 mv
182 to 185	CNC(=S)NS(=O)(=O)c1cc(CCNC(=O)c2cc(F)ccc2OC)ccc1OC	–	–	–
183	CNC(=S)NS(=O)(=O)c1cc(CCNC(=O)c2cc(Cl)ccc2OC)ccc1C	–	–	–
–	CNC(=O)NS(=O)(=O)c1cc(CCNC(=O)c2cc(Cl)ccc2OC)ccc1OC [Example 1, 2-Methoxy-5-chloro-N-{5-[1-sulfonylamino-N-(methylaminocarbonyl)-2-methoxyphenyl]-ethyl}-benzamide]	138 ± 3 (160 ± 20) ms	107 ± 14 (155 ± 9) ms	13 (−76) n = 6 mv
155	CCc1ccc(CCNC(=O)c2cc(Cl)ccc2OC)cc1S(=O)(=O)NC(=S)NC	–	–	–
